Legend:
[1] = target: L1196M mutated ALK kinase (Homo sapiens (Human), UniProt Q9UM73, L1196M); experiment: biochemical
[2] = test system: human non-small cell lung carcinoma NCI-H2228; experiment: Therapeutic effect on human non-small cell lung carcinoma NCI-H2228 xenografts in nude mice; type: in vivo; conditions: D0-13 once a day; for Average tumor volume (mm^3) D0: D0 baseline at grouping
ALK kinase = ALK kinase (Homo sapiens (Human), UniProt Q9UM73); conditions: read-out: IC50 (nM), ALK inhibition activity; HTRF, ATP at Km
[3] = target: G1269S mutated ALK kinase (Homo sapiens (Human), UniProt Q9UM73, G1269S); experiment: biochemical
CYP-3A4 = CYP-3A4 (Homo sapiens (Human), UniProt P08684); experiment: Inhibition of CYP-3A4 (midazolam substrate); type: in vitro ADME; conditions: for IC50: substrate midazolam, read-out: Inhibition to CYP-3A4, 3A4_Midazolam
[4] = In vivo pharmacokinetics in SD rats; conditions: Sprague-Dawley, rat, po, 5 mg/kg
in vivo = conditions: Sprague-Dawley, rat, po, 5 mg/kg

Sequence of CYP-3A4 (P08684 whole entry): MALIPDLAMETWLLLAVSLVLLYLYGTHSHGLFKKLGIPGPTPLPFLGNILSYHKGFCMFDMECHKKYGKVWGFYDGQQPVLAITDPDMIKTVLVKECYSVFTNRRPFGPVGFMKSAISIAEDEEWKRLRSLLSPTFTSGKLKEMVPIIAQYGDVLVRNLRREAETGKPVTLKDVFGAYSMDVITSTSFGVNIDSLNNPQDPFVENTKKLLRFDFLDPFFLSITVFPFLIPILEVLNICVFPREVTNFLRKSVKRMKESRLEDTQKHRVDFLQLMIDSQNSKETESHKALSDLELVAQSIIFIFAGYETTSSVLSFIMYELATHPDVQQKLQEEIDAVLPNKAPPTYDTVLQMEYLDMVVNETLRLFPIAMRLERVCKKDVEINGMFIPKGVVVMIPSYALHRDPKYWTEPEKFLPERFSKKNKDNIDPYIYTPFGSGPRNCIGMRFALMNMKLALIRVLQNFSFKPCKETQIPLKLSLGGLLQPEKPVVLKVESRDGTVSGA
Sequence of G1269S mutated ALK kinase (Q9UM73 19-1620 G1269S): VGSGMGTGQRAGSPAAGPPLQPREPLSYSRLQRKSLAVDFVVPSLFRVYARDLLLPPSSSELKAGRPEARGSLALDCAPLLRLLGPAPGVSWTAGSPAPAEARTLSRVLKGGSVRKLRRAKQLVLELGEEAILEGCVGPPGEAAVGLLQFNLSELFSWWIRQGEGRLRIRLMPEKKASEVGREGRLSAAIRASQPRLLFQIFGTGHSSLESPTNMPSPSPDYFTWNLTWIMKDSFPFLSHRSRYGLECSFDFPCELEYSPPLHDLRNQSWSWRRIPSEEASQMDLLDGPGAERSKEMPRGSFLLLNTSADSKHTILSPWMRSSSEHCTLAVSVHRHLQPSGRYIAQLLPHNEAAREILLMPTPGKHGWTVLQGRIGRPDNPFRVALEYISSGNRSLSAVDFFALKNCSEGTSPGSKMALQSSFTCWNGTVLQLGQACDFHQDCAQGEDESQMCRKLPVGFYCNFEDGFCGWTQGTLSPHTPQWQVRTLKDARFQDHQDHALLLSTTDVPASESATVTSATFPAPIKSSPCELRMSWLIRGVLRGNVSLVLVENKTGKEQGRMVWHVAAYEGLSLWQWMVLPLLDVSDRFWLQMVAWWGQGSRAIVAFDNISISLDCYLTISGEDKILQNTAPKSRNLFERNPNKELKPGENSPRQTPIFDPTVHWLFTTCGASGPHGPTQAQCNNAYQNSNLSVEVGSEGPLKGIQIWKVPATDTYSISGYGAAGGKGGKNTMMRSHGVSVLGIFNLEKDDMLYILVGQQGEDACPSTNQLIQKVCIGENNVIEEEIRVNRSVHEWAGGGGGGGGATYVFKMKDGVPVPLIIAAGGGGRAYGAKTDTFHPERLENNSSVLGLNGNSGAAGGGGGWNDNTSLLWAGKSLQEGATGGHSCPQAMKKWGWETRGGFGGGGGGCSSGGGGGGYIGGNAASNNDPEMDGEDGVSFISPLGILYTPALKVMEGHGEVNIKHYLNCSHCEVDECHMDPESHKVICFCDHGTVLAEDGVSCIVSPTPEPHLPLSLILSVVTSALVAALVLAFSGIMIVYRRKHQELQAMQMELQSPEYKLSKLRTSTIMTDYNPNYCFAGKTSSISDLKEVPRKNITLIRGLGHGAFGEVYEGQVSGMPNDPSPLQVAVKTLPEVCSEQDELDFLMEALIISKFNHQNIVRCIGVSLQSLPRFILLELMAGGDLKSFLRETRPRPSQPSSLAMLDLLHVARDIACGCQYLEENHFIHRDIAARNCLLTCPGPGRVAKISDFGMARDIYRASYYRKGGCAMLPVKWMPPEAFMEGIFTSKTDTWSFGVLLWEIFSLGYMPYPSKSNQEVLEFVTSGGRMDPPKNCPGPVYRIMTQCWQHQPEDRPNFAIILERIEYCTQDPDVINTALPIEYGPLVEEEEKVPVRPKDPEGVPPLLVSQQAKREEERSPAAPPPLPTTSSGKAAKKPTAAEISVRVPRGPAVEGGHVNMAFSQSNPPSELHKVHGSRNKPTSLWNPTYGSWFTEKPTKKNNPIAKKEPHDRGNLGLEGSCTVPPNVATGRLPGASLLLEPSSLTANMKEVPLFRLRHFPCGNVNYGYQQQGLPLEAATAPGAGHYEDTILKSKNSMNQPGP
Sequence of ALK kinase (Q9UM73 19-1620): as the sequence (Q9UM73 19-1620 G1269S) above, with S1251G counted along it
Sequence of L1196M mutated ALK kinase (Q9UM73 19-1620 L1196M): as the sequence (Q9UM73 19-1620 G1269S) above, with L1178M, S1251G counted along it

SMILES | IC50 [1] [nM] | Average tumor volume (mm^3) D0 ([2]; 12.5 mg/kg PO) [mm^3] | % Inhibition rate D21 ([2]; 12.5 mg/kg PO, D21) [%] | % T/C D21 ([2]; 12.5 mg/kg PO, D21) [%] | Average tumor volume (mm^3) D21 ([2]; 12.5 mg/kg PO, D21) [mm^3] | Average tumor volume (mm^3) D0 ([2]; 25 mg/kg PO) [mm^3] | Average tumor volume (mm^3) D21 ([2]; 25 mg/kg PO, D21) [mm^3] | % T/C D21 ([2]; 25 mg/kg PO, D21, tumor regression formula) [%] | IC50 (ALK kinase) [nM] | IC50 [3] [nM] | inhibition against CYP-3A4 (in words) (CYP-3A4) | IC50 (CYP-3A4) [nM] | AUC(0-inf) [4] [ng·h/mL] | Cmax [4] [ng/mL] | Tmax [4] [h] | half-life [4] [h] | AUC(0-inf) (in vivo) [ng·h/mL] | Cmax (in vivo) [ng/mL] | Tmax (in vivo) [h] | half-life (in vivo) [h]
COc1cc(N2CCNC[C@@H]2C)ncc1-c1cnc(N)c(O[C@H](C)c2c(Cl)ccc(F)c2Cl)c1 [Example 27, 5-((R)-1-(2,6-dichloro-3-fluorophenyl)ethoxy)-4′-methoxy-6′-((S)-2-methylpiperazin-1-yl)-[3,3′-bipyridin]-6-amine] | 35.1 ± 5.3 | 134.3 | 78 | 22 | 394.8 | 131.0 | 21.7 | −83 | 1.96 | 61.3 ± 7.9 | no significant inhibition | > 10000 | 601 | 69.7 | 3.67 | 5.45 |  |  |  | 
CCOc1cc(N2CCNC[C@@H]2C)ncc1-c1cnc(N)c(O[C@H](C)c2c(Cl)ccc(F)c2Cl)c1 [Example 53, 5-((R)-1-(2,6-dichloro-3-fluorophenyl)ethoxy)-4′-ethoxy-6′-((S)-2-methylpiperazin-1-yl)-[3,3′-bipyridin]-6-amine] |  |  |  |  |  |  |  |  |  |  |  |  | 830 | 62.6 | 3.33 | 4.75 |  |  |  | 
COc1cc(-c2cnc(N)c(O[C@H](C)c3c(Cl)ccc(F)c3Cl)c2)cnc1C1=CCNCC1 [Example 30, (R)-5-(1-(2,6-dichloro-3-fluorophenyl)ethoxy)-5′-methoxy-1″,2″,3″,6″-tetrahydro-[3,3′:6′,4″-terpyridin]-6-amine] |  |  |  |  |  |  |  |  |  |  | no significant inhibition | > 10000 |  |  |  |  | 1270 | 113 | 3 | 4.43

From patent US9708295B2, “Substituted 2-aminopyridine protein kinase inhibitor” (CHIA TAI TIANQING PHARMACEUTICAL GROUP CO., LTD, priority 2013, dated 2017)
